# Laboratory results: US7268125B2 (Azevan Pharmaceuticals, Inc., priority 2001, dated 2007)
# Columns and labels:
# [1] = molecular target: T1, human V1a receptor (Homo sapiens, UniProt P37288); assay: Human vasopressin V1a receptor binding assay; conditions: hV1a cell line (CHO), competition with 1 nM 3H-AVP, 45 minutes at 37° C.; read-out: V1a BINDING AFFINITY (IC50 (nM))
# T1 construct: host or cells: CHO cells
# Method: Human Vasopression V1a Receptor Binding Assay.
# A cell line expressing the human V1a receptor in CHO cells (henceforth referred to as the hV1a cell line) was obtained from Dr. Michael Brownstein, NIMH, Bethesda, Md., USA. The hV1a cDNA sequence is described by Thibonnier et al., Journal of Biological Chemistry, 269, 3304-3310 (1994), and the expression method was the same as described by Morel et al. (1992). The hV1a cell line was grown in alpha-MEM with 10% fetal bovine serum and 250 ug/ml G418 (Gibco, Grand Island, N.Y., USA). For competitive binding assay, hV1a cells were plated into 6-well culture plate at 1:10 dilution from a confluency flask, and maintained in culture for at least two days. Culture medium was then removed, cells were washed with 2 ml binding buffer (25 mM Hepes, 0.25% BSA, 1×DMEM, PH=7.0). To each well, 990 μl binding buffer containing 1 nM 3H-AVP was added, and followed by 10 μl series diluted Example compounds dissolved in DMSO. […] 100 nM cold AVP (Sigma) was used to assess non-specific binding. Cells were incubated for 45 minutes at 37° C., assay mixture was removed and each well was washed three times with PBS (pH=7.4). 1 ml 2% SDS was added per well and plates were let sit for 30 minutes. The whole content in a well was transferred to a scintillation vial. Each well was rinsed with 0.5 ml PBS which was then added to the corresponding vial. Scintillation fluid (Ecoscint, National Diagnostics, Atlanta, Ga.) was then added at 3 ml per vial. Samples were counted in a liquid scintillation counter (Beckman LS3801). IC50 values were calculated by Prism Curve fitting software.
# All of the alkanedioic esters and amides exemplified in the foregoing examples were tested in this assay described of Example 201.
# [2] = molecular target: T2, vasopressin V1a receptor (Homo sapiens, UniProt P37288); assay: Inhibition of phosphatidylinositol turnover; type: cell-based; conditions: hV1a cells, [3H]inositol phosphates, versus 10 nM AVP
# T2 construct: host or cells: CHO cells
# T2 sequence (P37288 whole entry): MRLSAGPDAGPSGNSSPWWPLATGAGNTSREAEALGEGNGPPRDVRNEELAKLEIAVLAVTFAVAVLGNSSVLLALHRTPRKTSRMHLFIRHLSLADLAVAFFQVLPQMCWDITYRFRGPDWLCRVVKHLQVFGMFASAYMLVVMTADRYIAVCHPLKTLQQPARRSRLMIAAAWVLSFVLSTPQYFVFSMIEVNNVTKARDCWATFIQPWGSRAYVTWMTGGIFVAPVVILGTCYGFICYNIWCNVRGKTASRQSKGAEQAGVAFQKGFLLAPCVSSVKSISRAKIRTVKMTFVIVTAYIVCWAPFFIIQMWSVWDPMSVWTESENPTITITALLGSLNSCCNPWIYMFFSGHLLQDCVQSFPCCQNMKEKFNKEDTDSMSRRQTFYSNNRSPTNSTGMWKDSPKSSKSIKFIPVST
# Description: Inhibition of Phosphatidylinositol Turnover.
# The physiological effects of vasopressin are mediated through specific G-protein coupled receptors. The vasopressin V1a receptor is coupled to the Gq/G11 family of G proteins and mediates phosphatidylinositol turnover. The agonist or antagonist character of the compounds of the invention may be determined by their ability to inhibit vasopressin-mediated turnover of phosphatidylinositol by the procedure described in the following paragraphs.
# Three days prior to the assay, near-confluent cultures of hV1a cells were dissociated and seeded in 6-well tissue culture plates, about 100 wells being seeded from each 75 cm^2 flask (equivalent to 12:1 split ratio). Each well contained 1 mL of growth medium with 2 μCi of [^3H]myo-inositol (American Radiolabeled Chemicals, St. Louis, Mo., USA).
# All assays were in triplicate except for basal and 10 nM AVP (both n=6). AVP ((arginine vasopressin), Peninsula Labs, Belmont, Calif., USA (#8103)) was dissolved in 0.1N acetic acid. Test agents were dissolved in DMSO and diluted in DMSO to 200 times the final test concentration. […] The order of incubations was randomized. Incubations were initiated by removing the prelabeling medium, washing the monolayer once with 1 mL of 0.9% NaCl, and transferring the contents of the assay tubes to corresponding wells. The plates were incubated for 1 hour at 37° C. Incubations were terminated by removing the incubation medium and adding 500 μL of ice cold 0.5% (w/v) trichloroacetic acid and allowing the wells to stand for 15 min.
# BioRad Poly-Prep Econo-Columns were packed with 0.3 mL of AG 1 X-8 100-200 formate form resin. Resin was mixed 1:1 with water and 0.6 mL added to each column. Columns were then washed with 10 mL water. Scintillation vials (20 mL) were placed under each column. For each well, the contents were transferred to a minicolumn, after which the well was washed with 0.5 mL distilled water, which was also added to the minicolumn. The columns were then washed twice with 5 mL of 5 mM myo-inositol to elute free inositol. Aliquots (1 mL) were transferred to 20 mL scintillation vials and 10 mL of Beckman Ready Protein Plus added. After the myo-inositol wash was complete, empty scintillation vials were placed under the columns, and [^3H]inositol phosphates were eluted with three additions of 1 mL 0.5 M ammonium formate containing 0.1 N formic acid. Elution conditions were optimized to recover inositol mono-, bis-, and trisphosphates, without eluting the more metabolically inert tetrakis-, pentakis-, and hexakis-phosphates. […] Inositol lipids were measured by adding 1 mL of 2% sodium dodecyl sulfate (SDS) to each well, allowing the wells to stand for at least 30 min., and transferring the solution to 20 mL scintillation vials, to which 10 mL Beckman Ready Protein Plus scintillation fluid was then added. Samples were counted in a Beckman LS 3801 liquid scintillation counter for 10 min. Total inositol incorporation for each well was calculated as the sum of free inositol, inositol phosphates, and inositol lipids.
# Concentration-response curves for AVP and concentration-inhibition curves for test agents versus 10 nM AVP were analyzed by nonlinear least-squares curve-fitting to a 4-parameter logistic function. […] The curve-fitting was weighted under the assumption that the standard deviation was proportional to dpm of radioactivity. […] Inositol phosphates were expressed as dpm per 10^6 dpm of total inositol incorporation. […]
# T1 sequence (P37288 whole entry): as above
IC50 [1] [nM],agonist or antagonist character by inhibition of vasopressin-mediated turnover of phosphatidylinositol [2],SMILES
1.9,vasopressin V1a antagonists,"O=C(NCc1cccc(C(F)(F)F)c1)[C@H](CCC(=O)N1CCN(CCc2ccccc2)CC1)N1C(=O)[C@@H](N2C(=O)OC[C@@H]2c2ccccc2)[C@H]1C=Cc1ccccc1 (single isomer, unassigned) [Example 35]"
–,vasopressin V1a antagonists,"O=C(NCc1cccc(C(F)(F)F)c1)C(CCC(=O)N1CCC(N2CCCCC2)CC1)N1C(=O)C(N2C(=O)OCC2c2ccccc2)C1C=Cc1ccccc1 (single isomer, unassigned) [Example 88]"
0.49,vasopressin V1a antagonists,"O=C(NCc1cccc(C(F)(F)F)c1)C(CCC(=O)N1CCN(C2CCCCC2)CC1)N1C(=O)C(N2C(=O)OCC2c2ccccc2)C1C=Cc1ccccc1 (single isomer, unassigned) [Example 110]"
3.1,vasopressin V1a antagonists,O=C(NCc1cccc(C(F)(F)F)c1)[C@H](CC(=O)N1CCC(N2CCCCC2)CC1)N1C(=O)[C@@H](N2C(=O)OC[C@@H]2c2ccccc2)[C@H]1/C=C/c1ccccc1 [Example 44]
2.43,vasopressin V1a antagonists,O=C(NCc1cccc(C(F)(F)F)c1)[C@@H](CC(=O)N1CCC(N2CCCCC2)CC1)N1C(=O)[C@@H](N2C(=O)OC[C@@H]2c2ccccc2)[C@H]1/C=C/c1ccccc1 [Example 133]
9.5,–,O=C(NCc1cccc(C(F)(F)F)c1)[C@@H](CCC(=O)N1CCN(C2CCCCC2)CC1)N1C(=O)[C@@H](N2C(=O)OC[C@@H]2c2ccccc2)[C@H]1/C=C/c1ccccc1 [Example 139]
